Reference: patent publication US20250195553A1, “Use of Genipin-1-B-D-Gentiobioside in Preparation of Drug” (Guizhou Bailing Group Pharmaceutical Co., Ltd., priority 2023, published 2025)
Read-outs that look alike come from different tables or passages of the source.

Columns and labels:
[1] = test system: Mycoplasma Pneumoniae (MP); test: Mycoplasma pneumoniae-infected mouse pneumonia model: lung index; format: in vivo, BALB/C mice; parameters: First Batch Inhibition Rate: unit not given here; settings: 4 days
[2] = test system: Human Coronavirus OC43 (HCoV-OC43); format: in vivo; settings: OC43
[3] = test system: Human Respiratory Syncytial Virus (RSV); test: Mouse pneumonia model infected with RSV, nebulization: lung index; format: in vivo
Description: […] BALB/c mice, weighing 10±1 g, were randomly divided into four groups: a normal control group, a model control group, a high-dose Genipin-1-β-D-gentiobioside group (75 mg/ml), and a low-dose Genipin-1-β-D-gentiobioside group (37.5 mg/ml). Each group consisted of 10 mice, with an equal number of males and females. Except for the normal control group, all mice were lightly anesthetized with isoflurane and infected with respiratory syncytial virus (RSV) via intranasal administration, with each mouse receiving 35 μl of the virus. On the day of infection, the treatment groups began inhalation administration. Each group received nebulization for 25 minutes once daily for four consecutive days. The normal control group and the model control group received nebulized saline under the same conditions. On the fifth day, after weighing, the mice were sacrificed by cervical dislocation, and their lung tissues were dissected, weighed, and used to calculate the lung index and lung index inhibition rate. The lung tissues were also retained for virus load, pathological examination, and inflammatory factor detection. The results were statistically analyzed using the t-test for intergroup comparisons.

[4] = 37.5 mg/ml nebulization 25 min once daily 4 days
[5] = 75 mg/ml nebulization 25 min once daily 4 days

## COC(=O)C1=CO[C@@H](O[C@@H]2O[C@H](CO[C@@H]3O[C@H](CO)[C@@H](O)[C@H](O)[C@H]3O)[C@@H](O)[C@H](O)[C@H]2O)[C@@H]2C(CO)=CC[C@H]12 [Genipin-1-β-D-gentiobioside]
[1]; 37.5 mg/ml inhalation 15 min
  First Batch Inhibition Rate: 73.01
  First Batch Lung Index: 0.76 ± 0.09
  Second Batch Inhibition Rate: 56.34
  Second Batch Lung Index: 0.68 ± 0.08
[1]; 75 mg/ml inhalation 15 min
  First Batch Inhibition Rate: 93.06
  First Batch Lung Index: 0.72 ± 0.05
  Second Batch Inhibition Rate: 64.09
  Second Batch Lung Index: 0.67 ± 0.07
[2]; 37.5 mg/kg/d i.v. 4 days
  Inhibition Rate (lung index): 41.59%
  Lung Index: 0.80 ± 0.08 g lung weight × 100 g/body weight
[2]; 75 mg/kg/d i.v. 4 days
  Inhibition Rate (lung index): 42.34%
  Lung Index: 0.80 ± 0.05 g lung weight × 100 g/body weight
[2]; 150 mg/kg/d i.v. 4 days
  Inhibition Rate (lung index): 39.93%
  Lung Index: 0.80 ± 0.07 g lung weight × 100 g/body weight
[3]; [4]
  Inhibition Rate (lung index): 68.79%
  Lung Index: 0.70 ± 0.09 Lung weight/100 g body weight
[3]; [5]
  Inhibition Rate (lung index): 88.35%
  Lung Index: 0.67 ± 014 Lung weight/100 g body weight
